Results as given in patent US8975241B2, “Composition for treating and preventing obesity including high water-soluble 2-hydroxypropyl-betacyclodextrin as effective component” (Song Ho Biomed Co., Ltd., priority 2009, dated 2015).

Experiments:
[1] = system: mouse model with obesity caused by a high fat diet; assay: Change in body weight by autonomically drinking in mouse model with obesity caused by high fat diet; format: in vivo; conditions: for degree of body weight decrease as compared with HPBCD: autonomically drinking
Method: Male C57BL/6J mice (Five age of the week, KRIBB, Korea) were accommodated for 1 week, and then were induced with obesity by giving a high fat diet (60% fat kcal, Research Diets) for 15 days. The weights of the animals that were induced with obesity were equally divided into 3 animals as one group. And then, the solvent-control group drank sterilized distilled water, autonomically. Hydroxypropyl-β-cyclodextrin (HPBCD) was dissolved in sterilized distilled water to be 10, 15, and 20% (W/V) concentrations for drinking autonomically. A change in body weight was daily measured to all of animals during the test; the fixed amount of feeds was provided at the day of measuring body weight, and then an amount of intake per a group (g/day) was calculated by measuring a residual amount of feeds at the next day. A change in body weight was measured during the test using α-cyclodextrin (α-CD) instead of 2-hydroxypropyl-β-cyclodextrin (HPBCD) in the same method as the above <Example 1>.

[2] = system: human; conditions: cited from earlier work
[3] = system: high fat diet-mouse; assay: Change in body weight by oral administration in high fat diet-mouse; format: in vivo; conditions: Table 19, β-CD 15% (w/v) oral
[4] = system: mouse model with obesity caused by a high fat diet; assay: Change in body weight by autonomically drinking in mouse model with obesity caused by high fat diet; format: in vivo
[5] = system: mouse; conditions: cited from earlier work
[6] = system: high fat diet-mouse; assay: Change in body weight by oral administration in high fat diet-mouse; format: in vivo; conditions: for degree of body weight decrease as compared with HPBCD: method of Example 3 (oral)
Method: Male C57BL/6J mice (Five age of the week, KRIBB, Korea) were accommodated for 1 week. And then, the weights of the animals were equally divided into 5 animals as one group. While a high fat diet (60% fat kcal) was provided, sterilized distilled water and HPBCDs with 10, 20, and 40% (W/V) were orally administered at three times (Morning, Afternoon, Evening) a day for 5 days in 0.2 ml per 20 g body weight of a mouse at the same time. A change in body weight was measured to all of the animals during the test at one time per day; the fixed amount of feeds was provided at the day of measuring body weight, and then an average amount of intake per an animal (g/mouse/day) was calculated by measuring a residual amount of feeds at the next day.
A body weight was measured by using the same conditions as the above <Example 3>, except that BCDs with 10 and 20% (W/V) concentrations were used instead of HPBCDs with 10, 20, and 40% (W/V) concentrations.
A change in body weight was measured during the test using α-CD instead of HPBCD in the same method as the above <Example 3>.

OC[C@H]1O[C@@H]2O[C@H]3[C@H](O)[C@@H](O)[C@@H](O[C@H]4[C@H](O)[C@@H](O)[C@@H](O[C@H]5[C@H](O)[C@@H](O)[C@@H](O[C@H]6[C@H](O)[C@@H](O)[C@@H](O[C@H]7[C@H](O)[C@@H](O)[C@@H](O[C@H]8[C@H](O)[C@@H](O)[C@@H](O[C@H]1[C@H](O)[C@H]2O)O[C@@H]8CO)O[C@@H]7CO)O[C@@H]6CO)O[C@@H]5CO)O[C@@H]4CO)O[C@@H]3CO [BCD, β-cyclodextrin]
degree of body weight decrease as compared with HPBCD [1]: low | antiobesity effect [2]: reduce weight | Body weight as percent of initial body weight ([3]; 0 Day): 100.0 ± 0.0% | Body weight as percent of initial body weight ([3]; 1 Day): 99.6 ± 1.2% | Change in body weight (%) ([4]; Table 18, β-CD 10% (w/v) autonomically drinking, 0 Day): 100.0 ± 0.0% | Change in body weight (%) ([4]; Table 18, β-CD 10% (w/v) autonomically drinking, 1 Day): 99.8 ± 0.8% | Change in body weight (%) ([4]; Table 18, β-CD 10% (w/v) autonomically drinking, 2 Day): 98.5 ± 1.3% | Change in body weight (%) ([4]; Table 18, β-CD 10% (w/v) autonomically drinking, 3 Day): 98.2 ± 1.2% | Change in body weight (%) ([4]; Table 18, β-CD 20% (w/v) autonomically drinking, 0 Day): 100.0 ± 0.0% | Change in body weight (%) ([4]; Table 18, β-CD 20% (w/v) autonomically drinking, 1 Day): 99.1 ± 1.2% | Change in body weight (%) ([4]; Table 18, β-CD 20% (w/v) autonomically drinking, 2 Day): 98.6 ± 1.2% | Change in body weight (%) ([4]; Table 18, β-CD 20% (w/v) autonomically drinking, 3 Day): 97.5 ± 1.0% | Change in body weight (%) ([4]; Table 18, β-CD 40% (w/v) autonomically drinking, 0 Day): 100.0 ± 0.0% | Change in body weight (%) ([4]; Table 18, β-CD 40% (w/v) autonomically drinking, 1 Day): 98.8 ± 1.1% | Change in body weight (%) ([4]; Table 18, β-CD 40% (w/v) autonomically drinking, 2 Day): 97.0 ± 0.8% | Change in body weight (%) ([4]; Table 18, β-CD 40% (w/v) autonomically drinking, 3 Day): 96.4 ± 1.3% | antiobesity effect [5]: suppress a weight increase | increase in body weight as compared with the distilled water oral-administering group ([6]; 10 and 20% (W/V) oral): suppressed | body weight as compared with the initial body weight ([6]; 10 and 20% (W/V) oral, Example 5): not decreased | Body weight as percent of initial body weight ([6]; Table 15, BCD 10% (w/v) oral, 0 Day): 100.0 ± 0.0% | Body weight as percent of initial body weight ([6]; Table 15, BCD 10% (w/v) oral, 1 Day): 101.5 ± 2.1% | Body weight as percent of initial body weight ([6]; Table 15, BCD 10% (w/v) oral, 2 Day): 100.7 ± 1.9 % | Body weight as percent of initial body weight ([6]; Table 15, BCD 10% (w/v) oral, 3 Day): 102.0 ± 2.5 % | Body weight as percent of initial body weight ([6]; Table 15, BCD 10% (w/v) oral, 4 Day): 102.4 ± 4.0 % | Body weight as percent of initial body weight ([6]; Table 15, BCD 10% (w/v) oral, 5 Day): 103.4 ± 4.1 % | Body weight as percent of initial body weight ([6]; Table 15, BCD 20% (w/v) oral, 0 Day): 100.0 ± 0.0% | Change in body weight (%) ([6]; Table 15, BCD 20% (w/v) oral, 1 Day): 100.3 ± 2.7 % | Body weight as percent of initial body weight ([6]; Table 15, BCD 20% (w/v) oral, 2 Day): 102.1 ± 2.1 % | Body weight as percent of initial body weight ([6]; Table 15, BCD 20% (w/v) oral, 3 Day): 103.1 ± 2.1 % | Body weight as percent of initial body weight ([6]; Table 15, BCD 20% (w/v) oral, 4 Day): 103.7 ± 3.0 % | Body weight as percent of initial body weight ([6]; Table 15, BCD 20% (w/v) oral, 5 Day): 103.2 ± 2.6 % | Body weight as percent of initial body weight ([6]; Table 19, β-CD 10% (w/v) oral, 0 Day): 100.0 ± 0.0% | Body weight as percent of initial body weight ([6]; Table 19, β-CD 10% (w/v) oral, 1 Day): 100.5 ± 0.8% | Body weight as percent of initial body weight ([6]; Table 19, β-CD 10% (w/v) oral, 2 Day): 100.1 ± 1.3% | Body weight as percent of initial body weight ([6]; Table 19, β-CD 10% (w/v) oral, 3 Day): 99.8 ± 1.2% | Body weight as percent of initial body weight ([6]; Table 19, β-CD 15% (w/v) oral, 2 Day): 99.0 ± 1.4% | Body weight as percent of initial body weight ([6]; Table 19, β-CD 15% (w/v) oral, 3 Day): 98.5 ± 1.0% | Body weight as percent of initial body weight ([6]; Table 19, β-CD 20% (w/v) oral, 0 Day): 100.0 ± 0.0% | Body weight as percent of initial body weight ([6]; Table 19, β-CD 20% (w/v) oral, 1 Day): 99.5 ± 1.1% | Body weight as percent of initial body weight ([6]; Table 19, β-CD 20% (w/v) oral, 2 Day): 98.6 ± 0.8% | Body weight as percent of initial body weight ([6]; Table 19, β-CD 20% (w/v) oral, 3 Day): 97.8 ± 1.3% | degree of body weight decrease as compared with HPBCD [6]: low | difference of effect between 10 and 20% (W/V) ([6]; oral): no significant difference

OC[C@H]1O[C@@H]2O[C@H]3[C@H](O)[C@@H](O)[C@@H](O[C@H]4[C@H](O)[C@@H](O)[C@@H](O[C@H]5[C@H](O)[C@@H](O)[C@@H](O[C@H]6[C@H](O)[C@@H](O)[C@@H](O[C@H]7[C@H](O)[C@@H](O)[C@@H](O[C@H]1[C@H](O)[C@H]2O)O[C@@H]7CO)O[C@@H]6CO)O[C@@H]5CO)O[C@@H]4CO)O[C@@H]3CO [α-CD, α-cyclodextrin]
Change in body weight (%) ([1]; Table 16, α-CD 10% (w/v) autonomically drinking, 2 Day): 100.6 ± 0.4% | Change in body weight (%) ([1]; Table 16, α-CD 15% (w/v) autonomically drinking, 1 Day): 99.8 ± 0.4% | Change in body weight (%) ([1]; Table 16, α-CD 15% (w/v) autonomically drinking, 2 Day): 99.3 ± 0.8% | Change in body weight (%) ([1]; Table 16, α-CD 20% (w/v) autonomically drinking, 1 Day): 99.8 ± 0.8% | Change in body weight (%) ([1]; Table 16, α-CD 20% (w/v) autonomically drinking, 2 Day): 99.0 ± 1.4% | degree of body weight decrease as compared with HPBCD [1]: low | Change in body weight (%) ([4]; Table 16, α-CD 10% (w/v) autonomically drinking, 0 Day): 100.0 ± 0.0% | Change in body weight (%) ([4]; Table 16, α-CD 10% (w/v) autonomically drinking, 1 Day): 100.2 ± 0.2% | Change in body weight (%) ([4]; Table 16, α-CD 10% (w/v) autonomically drinking, 3 Day): 100.1 ± 1.4% | Change in body weight (%) ([4]; Table 16, α-CD 15% (w/v) autonomically drinking, 0 Day): 100.0 ± 0.0% | Change in body weight (%) ([4]; Table 16, α-CD 15% (w/v) autonomically drinking, 3 Day): 98.9 ± 1.1% | Change in body weight (%) ([4]; Table 16, α-CD 20% (w/v) autonomically drinking, 0 Day): 100.0 ± 0.0% | Change in body weight (%) ([4]; Table 16, α-CD 20% (w/v) autonomically drinking, 3 Day): 98.5 ± 1.3% | Body weight as percent of initial body weight ([6]; Table 17, α-CD 10% (w/v) oral, 0 Day): 100.0 ± 0.0% | Body weight as percent of initial body weight ([6]; Table 17, α-CD 10% (w/v) oral, 1 Day): 101.3 ± 0.4% | Body weight as percent of initial body weight ([6]; Table 17, α-CD 10% (w/v) oral, 2 Day): 100.5 ± 1.6% | Body weight as percent of initial body weight ([6]; Table 17, α-CD 10% (w/v) oral, 3 Day): 100.2 ± 2.7% | Body weight as percent of initial body weight ([6]; Table 17, α-CD 20% (w/v) oral, 0 Day): 100.0 ± 0.0% | Body weight as percent of initial body weight ([6]; Table 17, α-CD 20% (w/v) oral, 1 Day): 99.8 ± 0.8% | Body weight as percent of initial body weight ([6]; Table 17, α-CD 20% (w/v) oral, 2 Day): 99.5 ± 1.2% | Body weight as percent of initial body weight ([6]; Table 17, α-CD 20% (w/v) oral, 3 Day): 99.2 ± 1.0% | Body weight as percent of initial body weight ([6]; Table 17, α-CD 40% (w/v) oral, 0 Day): 100.0 ± 0.0% | Body weight as percent of initial body weight ([6]; Table 17, α-CD 40% (w/v) oral, 1 Day): 99.6 ± 1.0% | Body weight as percent of initial body weight ([6]; Table 17, α-CD 40% (w/v) oral, 2 Day): 99.0 ± 1.2% | Body weight as percent of initial body weight ([6]; Table 17, α-CD 40% (w/v) oral, 3 Day): 98.2 ± 1.3% | degree of body weight decrease as compared with HPBCD [6]: low
